Laboratory results published in the NIST ThermoML archive (doi:10.1021/je200972w).
± gives the expanded uncertainty stated by the source.

Settings: Liquid, Ebulliometric method (Recirculating still)

Row | SMILES | vapor or sublimation pressure (329 K) [kPa] | vapor or sublimation pressure (337.42 K) [kPa]
1 | CC(C)=O [acetone] | 100 ± 0.7 | –
2 | CO [methanol] | – | 100 ± 0.7
